Read-outs that look alike come from different tables or passages of the source.
Experiments:
Type in all cases: biochemical
TSSK1 = molecular target: T1, TSSK1 (Homo sapiens, UniProt Q9BXA7); assay: Kinase profiling TSSK1; conditions: for remaining activity at 100 µM: read-out: residual kinase activity, TSSK1
T1 sequence (Q9BXA7 1-367): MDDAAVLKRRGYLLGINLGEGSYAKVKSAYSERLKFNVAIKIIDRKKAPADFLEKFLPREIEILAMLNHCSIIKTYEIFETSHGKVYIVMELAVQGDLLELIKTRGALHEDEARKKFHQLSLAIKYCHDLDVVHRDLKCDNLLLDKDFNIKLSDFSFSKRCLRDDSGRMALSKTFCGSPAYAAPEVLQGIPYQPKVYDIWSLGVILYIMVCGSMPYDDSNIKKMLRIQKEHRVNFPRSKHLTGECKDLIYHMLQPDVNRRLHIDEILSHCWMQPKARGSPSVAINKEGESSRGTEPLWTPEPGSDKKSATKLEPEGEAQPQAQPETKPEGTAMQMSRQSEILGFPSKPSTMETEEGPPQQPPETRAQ
From the text: (§1) Any value less that 25 is considered to be highly significant inhibition.

EPH-B1 = molecular target: T2, EPH-B1 (Homo sapiens, UniProt P54762); assay: Kinase profiling EPH-B1; conditions: for remaining activity at 100 µM: read-out: residual kinase activity, EPH-B1
T2 sequence (P54762 18-984): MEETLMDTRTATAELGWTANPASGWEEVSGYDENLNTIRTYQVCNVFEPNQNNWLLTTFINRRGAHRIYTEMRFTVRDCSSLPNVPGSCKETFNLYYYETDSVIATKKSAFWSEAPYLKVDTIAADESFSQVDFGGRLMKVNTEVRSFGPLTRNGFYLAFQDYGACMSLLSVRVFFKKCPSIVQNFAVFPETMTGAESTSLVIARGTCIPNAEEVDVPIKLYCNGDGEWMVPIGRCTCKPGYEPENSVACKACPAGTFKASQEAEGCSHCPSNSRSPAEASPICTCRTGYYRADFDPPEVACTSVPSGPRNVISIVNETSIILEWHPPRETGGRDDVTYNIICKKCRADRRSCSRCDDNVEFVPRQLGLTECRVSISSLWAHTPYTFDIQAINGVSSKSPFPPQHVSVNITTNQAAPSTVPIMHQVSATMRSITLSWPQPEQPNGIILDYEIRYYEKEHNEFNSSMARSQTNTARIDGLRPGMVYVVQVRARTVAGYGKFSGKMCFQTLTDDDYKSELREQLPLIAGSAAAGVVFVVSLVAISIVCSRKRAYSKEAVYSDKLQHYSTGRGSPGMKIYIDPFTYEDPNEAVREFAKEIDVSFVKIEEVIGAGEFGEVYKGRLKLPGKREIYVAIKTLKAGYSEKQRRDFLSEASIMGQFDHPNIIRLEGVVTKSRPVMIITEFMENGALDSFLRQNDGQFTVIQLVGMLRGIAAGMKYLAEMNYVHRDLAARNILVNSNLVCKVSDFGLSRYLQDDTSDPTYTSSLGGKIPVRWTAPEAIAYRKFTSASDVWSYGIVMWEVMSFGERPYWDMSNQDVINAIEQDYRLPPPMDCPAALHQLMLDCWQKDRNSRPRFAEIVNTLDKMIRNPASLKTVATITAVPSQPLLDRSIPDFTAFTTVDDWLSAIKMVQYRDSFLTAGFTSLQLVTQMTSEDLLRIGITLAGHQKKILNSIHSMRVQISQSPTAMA
From the text: as §1

TAO1 = molecular target: T3, TAO1 (Homo sapiens, UniProt Q7L7X3); assay: Kinase profiling TAO1; conditions: for remaining activity at 100 µM: read-out: residual kinase activity, TAO1
T3 sequence (Q7L7X3 1-1001): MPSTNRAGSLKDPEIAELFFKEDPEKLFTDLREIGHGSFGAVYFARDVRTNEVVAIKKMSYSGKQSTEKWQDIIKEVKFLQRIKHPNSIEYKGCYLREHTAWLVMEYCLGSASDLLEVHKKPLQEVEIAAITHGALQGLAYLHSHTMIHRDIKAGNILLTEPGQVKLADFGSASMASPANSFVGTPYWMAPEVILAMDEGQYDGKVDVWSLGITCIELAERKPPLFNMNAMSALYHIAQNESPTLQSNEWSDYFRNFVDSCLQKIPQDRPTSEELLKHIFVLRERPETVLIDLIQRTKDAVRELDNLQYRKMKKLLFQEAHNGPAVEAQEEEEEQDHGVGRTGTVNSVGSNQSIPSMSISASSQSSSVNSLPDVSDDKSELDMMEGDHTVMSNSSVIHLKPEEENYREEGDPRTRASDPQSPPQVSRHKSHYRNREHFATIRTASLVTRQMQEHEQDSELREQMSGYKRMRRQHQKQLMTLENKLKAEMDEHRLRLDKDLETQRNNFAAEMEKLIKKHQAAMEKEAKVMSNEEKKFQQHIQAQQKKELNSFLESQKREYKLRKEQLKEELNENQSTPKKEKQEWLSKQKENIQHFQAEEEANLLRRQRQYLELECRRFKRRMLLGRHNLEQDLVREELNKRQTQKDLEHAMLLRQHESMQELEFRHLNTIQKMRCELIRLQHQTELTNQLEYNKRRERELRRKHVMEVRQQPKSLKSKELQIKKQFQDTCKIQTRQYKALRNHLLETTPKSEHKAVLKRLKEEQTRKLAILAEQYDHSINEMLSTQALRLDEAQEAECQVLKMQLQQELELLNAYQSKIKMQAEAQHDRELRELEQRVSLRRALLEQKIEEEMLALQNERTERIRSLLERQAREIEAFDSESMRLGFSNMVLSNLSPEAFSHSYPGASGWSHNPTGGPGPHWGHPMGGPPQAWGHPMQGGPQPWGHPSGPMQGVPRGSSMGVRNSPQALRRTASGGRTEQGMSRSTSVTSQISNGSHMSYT
From the text: as §1

IR = IR (Homo sapiens, UniProt P06213); assay: Kinase profiling IR; conditions: for remaining activity at 100 µM: read-out: residual kinase activity, IR
From the text: as §1

CHK1 = molecular target: T4, CHK1 (Homo sapiens, UniProt O14757); assay: Kinase profiling CHK1; conditions: for remaining activity at 100 µM: read-out: residual kinase activity, CHK1
T4 sequence (O14757 1-476): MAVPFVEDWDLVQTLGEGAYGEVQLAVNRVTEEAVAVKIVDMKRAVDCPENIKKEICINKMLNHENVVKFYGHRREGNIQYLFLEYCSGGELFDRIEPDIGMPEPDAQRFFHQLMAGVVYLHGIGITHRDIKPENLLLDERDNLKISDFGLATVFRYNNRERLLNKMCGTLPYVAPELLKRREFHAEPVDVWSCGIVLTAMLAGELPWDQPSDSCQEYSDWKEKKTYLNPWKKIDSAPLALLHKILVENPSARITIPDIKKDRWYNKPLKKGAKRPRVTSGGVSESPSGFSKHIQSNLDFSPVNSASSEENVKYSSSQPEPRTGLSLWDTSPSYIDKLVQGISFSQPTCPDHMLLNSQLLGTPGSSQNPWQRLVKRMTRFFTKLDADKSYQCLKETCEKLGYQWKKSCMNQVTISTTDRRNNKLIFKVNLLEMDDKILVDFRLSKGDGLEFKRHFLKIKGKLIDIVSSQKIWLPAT
From the text: as §1

MAP4K5 = MAP4K5 (Homo sapiens, UniProt Q9Y4K4); assay: Kinase profiling MAP4K5; conditions: for remaining activity at 100 µM: read-out: residual kinase activity, MAP4K5
From the text: as §1

[1] = 100 micromolar inhibitor concentration, 100 is no change
[2] = 100 micromolar inhibitor, 100 = no change

Chain of MAP4K5 (Q9Y4K4 whole entry, species assumed): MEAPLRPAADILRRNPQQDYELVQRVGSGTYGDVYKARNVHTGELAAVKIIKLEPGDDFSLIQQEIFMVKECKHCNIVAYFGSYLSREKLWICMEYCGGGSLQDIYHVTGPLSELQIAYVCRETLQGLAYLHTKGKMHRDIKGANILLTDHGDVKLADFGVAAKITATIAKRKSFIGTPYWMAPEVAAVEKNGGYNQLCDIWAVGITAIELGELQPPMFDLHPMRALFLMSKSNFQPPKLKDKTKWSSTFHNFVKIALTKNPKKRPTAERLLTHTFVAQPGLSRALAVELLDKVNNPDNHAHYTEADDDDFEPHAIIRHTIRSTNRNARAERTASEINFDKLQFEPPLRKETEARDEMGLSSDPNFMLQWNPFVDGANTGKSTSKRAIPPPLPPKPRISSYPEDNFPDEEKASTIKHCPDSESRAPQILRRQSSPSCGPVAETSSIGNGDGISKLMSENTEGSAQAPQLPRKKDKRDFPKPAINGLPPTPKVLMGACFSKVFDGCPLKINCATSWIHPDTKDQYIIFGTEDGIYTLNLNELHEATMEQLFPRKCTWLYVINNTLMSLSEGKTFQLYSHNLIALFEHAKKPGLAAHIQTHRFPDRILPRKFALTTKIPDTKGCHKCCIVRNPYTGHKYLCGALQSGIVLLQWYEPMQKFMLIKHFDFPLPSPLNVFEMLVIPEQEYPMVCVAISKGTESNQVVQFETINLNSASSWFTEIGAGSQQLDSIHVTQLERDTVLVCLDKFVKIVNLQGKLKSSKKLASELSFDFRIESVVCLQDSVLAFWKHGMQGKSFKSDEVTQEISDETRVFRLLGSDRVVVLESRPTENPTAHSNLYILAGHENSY
Chain of IR (P06213 28-1382): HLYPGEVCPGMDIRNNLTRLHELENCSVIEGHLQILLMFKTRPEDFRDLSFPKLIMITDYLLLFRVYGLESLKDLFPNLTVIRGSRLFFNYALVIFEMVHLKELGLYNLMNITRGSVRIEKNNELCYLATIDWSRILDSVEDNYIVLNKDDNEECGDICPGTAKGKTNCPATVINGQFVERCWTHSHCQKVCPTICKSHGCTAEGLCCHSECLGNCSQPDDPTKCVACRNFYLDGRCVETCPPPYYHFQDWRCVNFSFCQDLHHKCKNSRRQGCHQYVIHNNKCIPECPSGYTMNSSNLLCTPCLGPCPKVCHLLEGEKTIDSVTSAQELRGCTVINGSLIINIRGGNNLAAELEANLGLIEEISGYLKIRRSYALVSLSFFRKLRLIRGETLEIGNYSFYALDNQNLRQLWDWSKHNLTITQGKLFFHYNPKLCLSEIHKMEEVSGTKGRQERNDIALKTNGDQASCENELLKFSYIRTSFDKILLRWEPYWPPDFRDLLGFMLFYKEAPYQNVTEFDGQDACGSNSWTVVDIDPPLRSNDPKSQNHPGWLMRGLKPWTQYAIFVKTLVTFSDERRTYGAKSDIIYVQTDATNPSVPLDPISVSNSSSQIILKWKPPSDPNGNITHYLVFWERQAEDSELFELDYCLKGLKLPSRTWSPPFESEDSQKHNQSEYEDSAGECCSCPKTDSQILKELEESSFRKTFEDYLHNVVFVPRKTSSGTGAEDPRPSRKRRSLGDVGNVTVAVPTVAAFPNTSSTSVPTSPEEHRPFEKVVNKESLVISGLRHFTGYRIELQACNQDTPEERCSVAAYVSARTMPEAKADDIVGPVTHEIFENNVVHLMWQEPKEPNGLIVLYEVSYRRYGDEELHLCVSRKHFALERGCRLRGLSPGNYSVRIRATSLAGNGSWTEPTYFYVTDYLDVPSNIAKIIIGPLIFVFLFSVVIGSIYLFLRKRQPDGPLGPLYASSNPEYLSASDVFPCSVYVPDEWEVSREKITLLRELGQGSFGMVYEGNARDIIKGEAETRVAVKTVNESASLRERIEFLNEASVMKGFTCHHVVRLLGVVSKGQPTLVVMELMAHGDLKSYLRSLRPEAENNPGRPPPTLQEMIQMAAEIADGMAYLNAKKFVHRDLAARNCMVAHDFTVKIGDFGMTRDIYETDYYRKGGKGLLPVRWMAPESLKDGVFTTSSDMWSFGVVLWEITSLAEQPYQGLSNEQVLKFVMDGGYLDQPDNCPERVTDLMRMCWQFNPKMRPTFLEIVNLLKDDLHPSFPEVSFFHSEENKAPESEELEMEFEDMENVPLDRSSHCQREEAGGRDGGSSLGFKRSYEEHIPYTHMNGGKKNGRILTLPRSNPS

| SMILES | remaining activity at 100 µM (TSSK1; [1]) | remaining activity at 100 µM (EPH-B1; [1]) | remaining activity at 100 µM (TAO1; [1]) | remaining activity at 100 µM (IR; [1]) | remaining activity at 100 µM (MAP4K5; [1]) | remaining activity at 100 µM (CHK1; [1]) | residual kinase activity, TSSK1 (TSSK1; [1]) | residual kinase activity, EPH-B1 (EPH-B1; [1]) | residual kinase activity, TAO1 (TAO1; [1]) | residual kinase activity, IR (IR; [1]) | residual kinase activity, MAP4K5 (MAP4K5; [1]) | residual kinase activity, CHK1 (CHK1; [1]) | also measured |
| --- | --- | --- | --- | --- | --- | --- | --- | --- | --- | --- | --- | --- | --- |
| CC(=O)Nc1nc2cc(O)ccc2s1 [Compound 01-66, N-(5-hydroxybenzo[d]thiazol-2-yl)acetamide] |  |  |  |  |  |  |  |  |  |  |  |  | remaining activity at 100 µM (TSSK1): 65%; remaining activity at 100 µM (EPH-B1): 93%; remaining activity at 100 µM (TAO1): 30%; remaining activity at 100 µM (IR): 63%; remaining activity at 100 µM (CHK1): 75% |
| CC(=O)Nc1nc2cc(F)ccc2s1 [Compound 03-77] | 84% | 103% | 69% | 87% | 65% | 103% |  |  |  |  |  |  |  |
| CC(=O)Nc1nc2cc(C)ccc2s1 [Compound 03-76] |  |  |  |  |  |  | 79 | 103 | 76 | 97 | 83 | 102 |  |
| O=C(Nc1nc2ccc(O)cc2s1)c1cccnc1 [Compound 08-44] |  |  |  |  |  |  | 109 | 93 | 68 | 35 | 81 | 78 |  |
| O=C(Nc1nc2ccc(O)cc2s1)c1ccccn1 [Compound 03-12] |  |  |  |  |  |  | 66 | 94 | 74 | 27 | 74 | 90 |  |
| CC(=O)Nc1nc2ccccc2s1 [Compound 03-32] |  |  |  |  |  |  | 83 | 97 | 73 | 87 | 95 | 105 |  |
| CC(=O)Nc1nc2cc(C(F)(F)F)ccc2s1 [Compound 03-73] | 71% | 114% | 88% | 102% | 73% | 110% |  |  |  |  |  |  |  |
| CC(=O)Nc1cccc(NC(=O)c2nc3ccc(O)cc3s2)c1 [Compound 03-07, N-(3-acetamidophenyl)-6-hydroxybenzo[d]thiazole-2-carboxamide] |  |  |  |  |  |  |  |  |  |  |  |  | remaining activity at 100 µM (TSSK1; [2]): 57%; remaining activity at 100 µM (EPH-B1; [2]): 104%; remaining activity at 100 µM (TAO1; [2]): 84%; remaining activity at 100 µM (IR; [2]): 66%; remaining activity at 100 µM (MAP4K5; [2]): 56%; remaining activity at 100 µM (CHK1; [2]): 113% |
| O=C(Nc1nc2cc(O)ccc2s1)c1cccnc1 [Compound 03-33] |  |  |  |  |  |  | 75 | 104 | 87 | 105 | 58 | 106 |  |
| O=C(Nc1nc2ccc(O)cc2s1)c1ccccc1 [Compound 03-60] |  |  |  |  |  |  | 27 | 98 | 62 | 31 | 31 | 72 |  |
| CC(=O)Nc1nc2ccc(C(F)(F)F)cc2s1 [Compound 01-90] | 90% | 91% | 71% | 84% | 40% | 97% |  |  |  |  |  |  |  |
| O=C(Nc1nc2ccc(O)cc2s1)c1ccncc1 [Compound 08-42] |  |  |  |  |  |  | 85 | 93 | 81 | 51 | 67 | 70 |  |
| O=C(Nc1nc2cc(O)ccc2s1)c1ccccn1 [Compound 03-13] |  |  |  |  |  |  | 95 | 98 | 80 | 74 | 50 | 88 |  |
| COc1ccc2sc(NC(C)=O)nc2c1 [Compound 03-21] | 75% | 99% | 72% | 109% | 96% | 110% |  |  |  |  |  |  |  |
| CC(=O)Nc1nc2ccc(C#N)cc2s1 [Compound 01-94] | 55% | 94% | 46% | 81% | 38% | 96% |  |  |  |  |  |  |  |
| CC(=O)Nc1nc2ccc(O)cc2s1 [Compound 01-71] | 67% | 86% | 29% | 35% |  | 82% |  |  |  |  |  |  |  |
